The record followed here is US10208007B2, “Use of strigolactones and strigolactone analogs for treating proliferative conditions” (The State of Israel, Ministry of Agriculture & Rural …, priority 2011, dated 2019).

One experiment deals with MDA-MB-231 cells. Description: Hoechst 33342 staining. In kind it is cell-based, human. Particulars: 48 hours. The procedure:
MDA-MB-231 cells were seeded out into 96 well plates in triplicate at 3000 cell per well. […] After 48 hours, the medium was aspirated off and 100 μl of Hoechst dye (2 μg/ml), diluted with the medium, was added to the cells and incubated for 15 minutes. Stained cells were observed under a fluorescence microscope (Zeiss 5 Instruments, Thornwood, N.Y.).

A further experiment deals with MDA-MB-436. Description: Crystal violet monolayer growth assay. In kind it is cell-based, human. Particulars: for IC50: after 7 days, read-out: IC50 of long-term proliferation. The procedure:
(§1) Cells were seeded at 1500 (MDA-MB-231, MDA-MB-436 and BJ fibroblasts) or 4000 cells per well of 96 well plates. […] At the indicated time points, individual plates were fixed and stained with crystal violet-methanol solution (50 μl per well) for 15 minutes, washed several times with distilled water and plates were air dried overnight. Sodium citrate solution (0.1M) was used to solubilize bound crystal violet and optical densities were measured at 560 nm (Glomax®-Multi Detection plate reader, Promega).
(§2) Cells (MDA-MB-231, MDA-MB-436 and BJ fibroblasts) were seeded at 1500 or 4000 cells per well of 96 well plates. […] At the indicated time points, individual plates were fixed and stained with crystal violet solution (0.5% crystal violet and 25% methanol) for 15 min, washed several times in distilled water and air dried overnight. Sodium citrate solution (0.1M) was used to solubilize bound crystal violet and optimal densities were measured at 560 nm (Glomax®—Multi Detection plate reader, Promega).
(§3) The effect of GR-24 (FIG. 3) on long-term cancer cell line growth was assessed by crystal violet assay. MCF-7 (estrogen receptor positive (ER+), tumorigenic, nonmetastatic), (A) MDA-MB-231, MDA-MB-436 (ER negative (−), metastatic) and BJ fibroblasts (normal, non-neoplastic line) were treated with GR-24 at a dose range of 0.5 to 10 ppm (1.65-33 μM). Growth was monitored for up to 10 days. At the indicated time points, plates were stained with crystal violet. Data are reported as the Percent Absorbance (560 nm) of vehicle control. Average±standard deviations (SD). Student's t-test (2-tailed, paired) was used to evaluate GR-24 treated groups with vehicle (control) groups at final time point and regarded as being significant if p<0.05 (*), very significant if p<0.01 (**), extremely significant if p<0.001 (***). (B) Is a graph showing the light absorbance reading (560 nm) after 7 days exposure to the indicated doses of GR-24. Data expressed as a percentage of vehicle controls. Average of triplicate samples+SD. Horizontal line (---) marks 50% reduction in Absorbance (560 nm) relative to vehicle controls.

The subject of a further experiment is MDA-MB-231. Nature of the experiment: Crystal violet monolayer growth assay. The following applies: for IC50: after 7 days, read-out: IC50 of long-term proliferation. In kind it is cell-based, human. As for the experimental part: as §1, §2, §3
A further experiment relates to MCF-7. Nature of the experiment: Crystal violet monolayer growth assay. In kind it is cell-based, human. As for the experimental part:
as §1, §2, §3

The test system of a further experiment is BJ fibroblasts. Nature of the experiment: Crystal violet monolayer growth assay. In kind it is cell-based, human. The following applies: up to 10 ppm, up to 10 days. The procedure:
as §1, §2, §3

In another experiment the test system is MDA-MB-231 mammospheres. Nature of the experiment: Mammosphere formation. It counts as cell-based, human. As for the experimental part:
(§4) Adherent cells were gently trypsinized, (0.05% trypsin/EDTA) washed twice in PBS and filtered through a […] cell sieve to obtain a single cell suspensions. Cells were diluted to a concentration of 10,000 cell/ml in serum-free phenol-red free MEBM (MEGM Bulletkit, Lonza) supplemented with 5 μg/ml bovine insulin, 20 ng/ml recombinant epidermal growth factor, 20 ng/ml basic fibroblast growth factor (Gibco), 1×B27 supplement, 0.5 μg/ml hydrocortisone (MEGM Bulletkit, Lonza). For MDA-MB-231 mammosphere cultures serum-free phenol red-free CnT-27 medium with growth additives (CellnTEC Advanced cell systems, Bern, Switzerland) was used as previously described. 0.1 ml was seeded per well of a Ultralow attachment 96 well plates. The following day the indicated doses of GR-24 (ppm) or vehicle alone (0.6% acetone f/c) were added. Media was replenished every 3-4 days. Self-renewal capacity of the mammospheres was determined by re-plating and producing further generations of mammospheres. Secondary mammospheres were cultivated by dissociation (trypsinization with gently vortexing) of 10-14 day old primary mammospheres. Single cell suspensions were obtained as described above.

In experiment [1] the test system is MCF-7 secondary mammospheres. Nature of the experiment: cells. Particulars: Homo sapiens, MCF7, 120 h. In kind it is cell-based. The procedure:
as §4
Mammosphere viability was assessed by XTT assay (ATCC). 5 days after addition of the indicated concentrations of GR-24, cell viability was determined. […] To further investigate GR-24 induced inhibition of mammosphere formation, the expression of breast stem cells markers were examined.

[2] abbreviates: read-out: Mammosphere viability.

Several values for one entry are separate records, joined by “and”; a condition that tells them apart may be missing. Identical values can stand only once. Like-named read-outs stand apart in the source and are kept apart here.

On to `CC1=CC(O/C=C2/C(=O)c3c(c4cc(-c5scc6c5OCCO6)ccc4n3C)C2C)OC1=O` (centres unmarked) [ST-362, (2E)-2-[(2,5-dihydro-4-methyl-5-oxofuran-2-yloxy)methylene]-1,2-dihydro-7-(2,3-dihydrothieno[3,4-b][1,4]dioxin-7-yl)-1,4-dimethyl-cyclopenta[b]indole-3-(4H)-one], for which the “Concentrations resulting in increased nuclear condensation and fragmentation (indicative of apoptosis)” value in the experiment on MDA-MB-231 cells is 10-15 ppm and 5-10 ppm.
On to `CC1=C[C@H](O/C=C2/C(=O)O[C@@H]3c4ccccc4C[C@H]23)OC1=O` (relative stereo) [GR-24, (3aR*,8bS*,E)-3-(((R*)-4-methyl-5-oxo-2,5-dihydrofuran-2-yloxy)methylene)-3,3a,4,8b-tetrahydro-2H-indeno[1,2-b]furan-2-one], for which the IC50 came out at 18.8 µM with MDA-MB-436 (Homo sapiens, MDA-MB-436, 168 h); 17.2 µM in the experiment on MDA-MB-436; 22.1 µM in the experiment on MDA-MB-231 (Homo sapiens, MDA-MB-231, 168 h); 18.8 µM in the experiment on MDA-MB-231; 18.8 µM with MCF-7 (Homo sapiens, MCF7, 168 h, after 7 days, read-out: IC50 of long-term proliferation). The “Concentrations resulting in a significant reduction in growth compared to vehicle” value in the experiment on MDA-MB-436 (up to 10 days), in the experiment with MDA-MB-231 (up to 10 days) and in the experiment with MCF-7 (up to 10 days) was 2.5-5 ppm each time. Moreover, in the experiment on MCF-7 (after 7 days), the “IC50 of long-term proliferation” value turned out to be 5.7 ppm. Moreover, the “Growth compared to vehicle” value with BJ fibroblasts is listed as “no significant reduction in growth”. Further, the Mammosphere growth entry with MDA-MB-231 mammospheres (2.5 ppm) is “severely attenuated”. In the experiment with MDA-MB-231 mammospheres (5 ppm), the Mammosphere formation entry is recorded as “completely blocked”. In addition, the “Concentration to block mammosphere formation, fold lower than IC50 dose for monolayer growth” value in the experiment on MDA-MB-231 mammospheres (MDA-MB-231) came out at 2.7 fold. Further, in experiment [1] (setting [2]), the viability at 2.5 ppm was found to be 68.6%. Besides, the viability at 5 ppm in experiment [1] (setting [2]) worked out at 16.4%. Also, the cytotoxicity at 5 ppm in experiment [1] (read-out: Reduction of viability) was around 80%.

Broadly, the viability is the share of living cells, or the viability signal relative to a control.
